This is an account of results in patent US20190314311A1, “PHARMACEUTICAL COMPOSITION” (JAPAN SCIENCE AND TECHNOLOGY AGENCY, priority 2016, published 2019).

Assay [1] deals with Thio-Q62 protein. Briefly: seed-induced polyQ aggregation reaction (turbidity). The assay is classed as biochemical. The settings on record: 10 μM Thio-Q62 + seeds, 400 mM arginine or proline, 37° C., 7 days. Here is the method: A solution in which abnormally expanded proteins were dissolved in physiological saline phosphate (PBS) was used as a measurement sample. The solution was incubated at 37° C., and turbidity at 405 nm was measured every 24 hours using a microplate reader “Spectramax Plus plate reader” (Molecular Devices Inc.).

For assay [2], the system named is Thio-Q62 protein. The experiment in a line: native PAGE of β-sheet conformational transition. The assay is classed as biochemical. As to conditions: 8.2 μM Thio-Q62, 600 mM arginine, PBS pH 7.5, 37° C., five days. From the text: The separated proteins were stained with Coomassie brilliant blue (CBB).
In assay [3] the test system is Q40-GFP expressing nematode line. The experiment in a line: tail-flick test in C. elegans model of the PolyQ diseases. As to conditions: 10 mM arginine, 6 days old nematodes, 20° C. The assay is classed as in vivo, Caenorhabditis elegans. Here is the method:
As a C. elegans model of the polyQ diseases, a Q40-GFP expressing nematode line (Non-Patent Document 14), which is a C. elegans line expressing GFP having a polyQ repeat consisting of 40 glutamines (Q40-GFP) was used.
Nematodes were grown at 20° C. on nematode growth medium (NGM) plates seeded with Escherichia coli OP50. For the generation of the Q40-GFP expression nematode line, plasmids encoding Q40-GFP were injected into wild type strain N2.
Tail-flick tests were performed at 20° C. on nematodes synchronized to 6 days old. First, each nematode was transferred to a separate plate. One drop of S-basal solution was dropped on one nematode, and after waiting for 5 minutes for them to recover, the number of movements of the tail of the worm was measured for 1 minute. The number of movements of the tail was defined as the number of times to change the bending direction of the mid-body of a nematode.
For orientation: Thermal pain tests record how soon the animal reacts.

Assay [4] has the same test system. Briefly: SDD-AGE of polyQ oligomers in nematode lysates. The format is in vivo, Caenorhabditis elegans. The settings on record: 10 mM arginine. Here is the method: SDD-AGE was performed as follows. First, nematodes were lysed in lysis buffer (0.5% SDS, 0.5% NP-40, 50 mM Tris-HCl, 150 mM NaCl, 5 mM EDTA, protease inhibitor cocktail), the resulting lysate was run on a 1% agarose gel with 0.01% SDS in a running buffer of Tris-Glycine containing 0.01% SDS, and then transferred overnight onto a nitrocellulose membrane. For subsequent western blot analysis, the membrane was incubated with the anti-GFP antibody (MBL Life sciences) at 10,000 dilution as the primary antibody at 4° C. overnight, and then with the HRP-conjugated anti-rabbit IgG antibody (MBL Life sciences) at 20,000 dilution as the secondary antibody. Immunoblots were imaged using the Lumino image analyzer system “ImageQuant LAS 4000” (GE Healthcare Life Sciences) and analyzed using “ImageQuantTL” (GE Healthcare Life Sciences).

The subject of assay [5] is SCA1 mice. The experiment in a line: rotarod test, arginine from 3 weeks of age. The assay is classed as in vivo, mouse. The settings on record: 6% by weight arginine in drinking water from 3 weeks of age. From the text: SCA1 mice express the abnormally expanded polyQ protein (the mutant ataxin 1 protein with polyQ repeats consisting of 154 glutamines) at endogenous levels and with accurate temporal and spatial patterns, and replicates numerous aspects of the human disease including progressive motor deficit. The SCA1 mice used in this experiment were a kind gift from Dr. Kei Watase (Tokyo Medical and Dental University, Japan).
Rotarod tests have been previously utilized for the assessment of motor function in SCA1 mice (Non-Patent Document 15).
For rotarod analysis, mice were tested on an accelerating rotarod apparatus (Ugo Basile) and performed according to the method described in Non-Patent Document 17. The time courses of the amount of walking time until wild type mice and SCA1 mice fell from the rotarod (Latency) are shown in FIG. 17. […] In the figure, values represent means±SEM (n=16-18), “**” represents p<0.01, and “***” represents p<0.001, respectively.

In assay [6] the test system is SCA1 mice. Briefly: balance beam test. The format is in vivo, mouse. As to conditions: 6% arginine in drinking water from 3 weeks; 28 weeks of age; vs untreated SCA1 mice. Here is the method:
SCA1 mice were also examined using the balance beam test to assess the motor coordination. For balance beam analysis, mice were assessed on their time to cross a beam with 1 m-long and 15 mm-diameter. The beam was placed approximately 50 cm above the ground with a bright light at the starting end and a dark box at the far end. Mice were initially trained for 3 consecutive days, 2 trials each, so that they learn to cross the beam without falling or turning around. On testing days, the time it took the mice to cross the beam was recorded. If the mice took longer than 60 seconds to cross, the score was counted as 60 seconds. Two trials were performed for each mouse, and a faster time was used for analysis.

Assay [7] has as its system SBMA mice. The experiment in a line: horizontal open-field activity and rearing behavior. The assay is classed as in vivo, mouse. The settings on record: 6% arginine in drinking water from 3 weeks; 12 weeks of age. An excerpt: As another PolyQ disease mouse model, the SBMA mouse (Non-Patent Document 18) was used. […] This motor dysfunction can be reversed with drug treatment (Non-Patent Document 19). The SBMA mouse used in this experiment was a kind gift from Dr. Gen Sobue (Nagoya University, Japan).
The motor dysfunction of the SBMA mouse can be monitored as spontaneous motor dysfunction, by measuring horizontal open-field activity and rearing behavior in the cage (Non-Patent Document 18). […] As a control, water without arginine was given to SBMA mice as drinking water (arginine untreated).
Horizontal open-field activity and rearing behavior were measured using a spontaneous locomotor activity monitor “Supermex” (Muromachi Kikai) according to the method described in Non-Patent Document 18. Specifically, a mouse was placed in a measuring cage in which infrared beams were projected inside and were allowed to move around freely. When the mouse moves inside the measuring cage, the infrared beam is obstructed and the infrared ray cannot be detected by the light receiving part (beam break). The number of beam breaks per minute was determined by measuring the number of beam breaks (counts/min). To detect movements in the horizontal direction, the number of beam breaks of the infrared beams projected in the vertical direction were counted. […]

In assay [8] the target is T1, amyloid-β (beta) 1-42 (Homo sapiens, UniProt P05067).
T1 construct: amyloid-β (beta) 1-42
T1 sequence (P05067 672-713 limits assumed): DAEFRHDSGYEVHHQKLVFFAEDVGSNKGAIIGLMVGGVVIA
The settings on record: Non-Patent Document 2; cited from earlier work.

The structures appear in SMILES notation.

Take `N=C(N)NCCC[C@H](N)C(=O)O` [arginine]: the “seed-induced increase in turbidity” value in assay [1] is on record as “markedly decreased”. In assay [2], the “band of β-sheet-rich monomer (native PAGE, CBB)” value was “did not appear even when incubated for a sufficient period of time”. Further, the “tail movements per minute” value in assay [3] is recorded as “significantly improved”. In addition, in assay [4], the “smear intensity by image analysis” value is given as “became smaller”; the “smear of Q40-GFP oligomers (SDD-AGE image)” value was “much lighter and less broad smear”. In addition, the “motor function, rotarod latency” value in assay [5] (4 to 12 weeks of age) is listed as “significantly better than the untreated mice”. Also, the “therapeutic effect on rotarod, duration” value in assay [5] (until 28 weeks of age) was “remained significant until 28 weeks of age”. In addition, the “time to cross the balance beam” value in assay [6] is “significantly less time”. Besides, in assay [7], the horizontal activity result is reported as “improved to levels comparable to untreated wild type mice” and the rearing behavior entry is given as “improved to levels comparable to untreated wild type mice”. Besides, in assay [8], the “aggregation of amyloid-β 1-42” value is listed as “prevents aggregation”.
